Assay results as given in ChEMBL document CHEMBL1201862, “PubChem BioAssay data set” (2004).
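All cell lines were grown in 96-well plates and treated with compound for 48 hours. At the GI50, growth is halved.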 Active and inactive are the calls of the source. Cut-off read from the data, not from the text of the source: active = GI50 up to about 1.1 µM and inactive = higher.

How the values were obtained:
Test in all cases: growth of human tumour cells (NCI), 48 h
ACHN = test system: ACHN
COLO 205 = test system: COLO 205
HCT-116 = test system: HCT-116
HOP-62 = test system: HOP-62
HT-29 = test system: HT-29
K562 = test system: K562
KM12 = test system: KM12
NCI-H23 = test system: NCI-H23
OVCAR-4 = test system: OVCAR-4
RXF 393 = test system: RXF 393
SF-268 = test system: SF-268
SF-295 = test system: SF-295
SK-OV-3 = test system: SK-OV-3
SN12C = test system: SN12C
SNB-19 = test system: SNB-19
SNB-75 = test system: SNB-75
SW-620 = test system: SW-620
UACC-62 = test system: UACC-62
HCC 2998 = test system: HCC 2998

Compound | GI50 (ACHN) | GI50 (COLO 205) | GI50 (HCT-116) | GI50 (HOP-62) | GI50 (HT-29) | GI50 (K562) | GI50 (KM12) | GI50 (NCI-H23) | GI50 (OVCAR-4) | GI50 (RXF 393) | GI50 (SF-268) | GI50 (SF-295) | GI50 (SK-OV-3) | GI50 (SN12C) | GI50 (SNB-19) | GI50 (SNB-75) | GI50 (SW-620) | GI50 (UACC-62) | GI50 (HCC 2998)
COc1cc2ccc(C(=O)O)cc2cc1OC | > 100 µM (inactive) | > 100 µM (inactive) | > 100 µM (inactive) | > 100 µM (inactive) | > 100 µM (inactive) | > 100 µM (inactive) | > 100 µM (inactive) | > 100 µM (inactive) | > 100 µM (inactive) | > 100 µM (inactive) | > 100 µM (inactive) | > 100 µM (inactive) | > 100 µM (inactive) | > 100 µM (inactive) | > 100 µM (inactive) | 37.4 µM (inactive) | > 100 µM (inactive) | > 100 µM (inactive) | –
CCC1=C(CC)C1(C#N)[N+](=O)[O-] | > 100 µM (inactive) | > 100 µM (inactive) | > 100 µM (inactive) | > 100 µM (inactive) | > 100 µM (inactive) | > 100 µM (inactive) | > 100 µM (inactive) | > 100 µM (inactive) | > 100 µM (inactive) | – | > 100 µM (inactive) | > 100 µM (inactive) | > 100 µM (inactive) | > 100 µM (inactive) | > 100 µM (inactive) | – | > 100 µM (inactive) | > 100 µM (inactive) | –
O=C(Nc1ccc(Cl)cc1)c1cc(S(=O)(=O)Nc2n[nH]c(=O)[nH]2)c(SSc2cc(Cl)c(C(=O)Nc3ccc(Cl)cc3)cc2S(=O)(=O)Nc2n[nH]c(=O)[nH]2)cc1Cl | > 100 µM (inactive) | > 100 µM (inactive) | > 100 µM (inactive) | > 100 µM (inactive) | > 100 µM (inactive) | > 100 µM (inactive) | > 100 µM (inactive) | > 100 µM (inactive) | > 100 µM (inactive) | – | > 100 µM (inactive) | > 100 µM (inactive) | > 100 µM (inactive) | > 100 µM (inactive) | > 100 µM (inactive) | 88.1 µM (inactive) | > 100 µM (inactive) | > 100 µM (inactive) | > 100 µM (inactive)
CC(C)c1cccc(C(C)C)c1NC(=O)CCC(=O)NN | > 100 µM (inactive) | 19.6 µM (inactive) | 66.4 µM (inactive) | > 100 µM (inactive) | > 100 µM (inactive) | 58.6 µM (inactive) | > 100 µM (inactive) | > 100 µM (inactive) | > 100 µM (inactive) | – | > 100 µM (inactive) | > 100 µM (inactive) | > 100 µM (inactive) | > 100 µM (inactive) | > 100 µM (inactive) | > 100 µM (inactive) | 21.9 µM (inactive) | > 100 µM (inactive) | > 100 µM (inactive)
O=C(CC/C(CC(=O)c1ccc(Cl)cc1)=N\O)Nc1cccc(Cl)c1 | > 100 µM (inactive) | > 100 µM (inactive) | – | > 100 µM (inactive) | > 100 µM (inactive) | > 100 µM (inactive) | > 100 µM (inactive) | > 100 µM (inactive) | > 100 µM (inactive) | – | > 100 µM (inactive) | > 100 µM (inactive) | > 100 µM (inactive) | > 100 µM (inactive) | > 100 µM (inactive) | 80.7 µM (inactive) | > 100 µM (inactive) | > 100 µM (inactive) | > 100 µM (inactive)
Cc1cc(C)c2c(c1)CN1CN2Cc2cc(C)cc(C)c21 | 18 µM (inactive) | 22.1 µM (inactive) | 19.4 µM (inactive) | 18.7 µM (inactive) | 16.3 µM (inactive) | 27.7 µM (inactive) | 18.2 µM (inactive) | 20.8 µM (inactive) | 18.3 µM (inactive) | 6.68 µM (inactive) | 31.6 µM (inactive) | 18.7 µM (inactive) | 27.8 µM (inactive) | 16.9 µM (inactive) | < 0.01 µM (active) | 4.36 µM (inactive) | 31.5 µM (inactive) | 16 µM (inactive) | –
O=C1Cc2ccccc2N1/N=C\c1ccc([N+](=O)[O-])cc1 | > 100 µM (inactive) | > 100 µM (inactive) | > 100 µM (inactive) | > 100 µM (inactive) | > 100 µM (inactive) | > 100 µM (inactive) | > 100 µM (inactive) | > 100 µM (inactive) | > 100 µM (inactive) | – | > 100 µM (inactive) | > 100 µM (inactive) | > 100 µM (inactive) | – | > 100 µM (inactive) | 54.8 µM (inactive) | > 100 µM (inactive) | > 100 µM (inactive) | > 100 µM (inactive)
O=C(OCc1ccccc1)c1ccccc1-c1c2ccc(=O)cc-2oc2cc(OCc3ccccc3)ccc12 | 6.93 µM (inactive) | 18.6 µM (inactive) | 9.46 µM (inactive) | – | 18.4 µM (inactive) | 3.18 µM (inactive) | 12.7 µM (inactive) | 10.4 µM (inactive) | 13.5 µM (inactive) | 14.4 µM (inactive) | 14.1 µM (inactive) | 17.2 µM (inactive) | – | 16.9 µM (inactive) | 35.1 µM (inactive) | – | 12.1 µM (inactive) | 10.2 µM (inactive) | 19.6 µM (inactive)
